How the values were obtained:
[1] = target: T1, hOT receptor (Homo sapiens, UniProt P30559); test: In vitro competition binding assay with scintillating proximity assay; conditions: [125I]-OVTA competition; membranes from HEK293EBNA cells expressing the hOT receptor; read-out: Binding affinity human OT-R IC50
T1 construct: expressed in transfected cells; host or cells: HEK293EBNA
T1 sequence (P30559 1-389): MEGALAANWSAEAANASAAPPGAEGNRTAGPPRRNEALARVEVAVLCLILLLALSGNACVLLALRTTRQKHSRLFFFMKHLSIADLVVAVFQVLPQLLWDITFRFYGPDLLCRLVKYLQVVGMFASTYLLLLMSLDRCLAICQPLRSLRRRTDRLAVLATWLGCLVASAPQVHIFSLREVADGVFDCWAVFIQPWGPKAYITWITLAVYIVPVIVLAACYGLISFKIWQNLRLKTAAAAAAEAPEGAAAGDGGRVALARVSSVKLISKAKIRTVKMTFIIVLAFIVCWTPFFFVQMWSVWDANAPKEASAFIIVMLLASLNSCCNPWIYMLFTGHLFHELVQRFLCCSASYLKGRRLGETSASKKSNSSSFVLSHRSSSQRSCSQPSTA
Description: a) In Vitro Competition Binding Assay with Scintillating Proximity Assay (Pharmaceutical Manufacturing International, 1992, p. 49–53 by Cook, N. D. et al)
This assays allows to determine the affinity of the test compounds for the OT receptor. Membranes from HEK293EBNA cells expressing the hOT receptor were resuspended in buffer containing 50 mM Tris-HCl, pH 7.4, 5 mM MgCl2 and 0.1% BSA (w/v). The membranes (2–4 μg) were mixed with 0.1 mg wheat-germ aglutinin (WGA) SPA bead (type A) and 0.2 nM of the radiolabel [^125I]-OVTA (OVTA being Ornithin Vasoactive and is an analogue of OT for competition binding experiments). Non-specific binding was determined in the presence of 1 μM Oxytocin. The total assay volume was 100 μl. The plates (Corning® NBS plate) were incubated at room temperature for 30 min and counted on a Mibrobeta plate counter. The tests compounds were used in concentrations of 30 μM, 10 μM, 1 μM, 300 nM, 100 nM, 10 nM, 1 nM, 100 pM, 10 pM. The competition binding data were analysed using the iterative, non-linear, curve-fitting program, “Prism”.
The binding affinities to the oxytocin receptor of the pyrrolidine derivatives claimed in the formula I were assessed using the above described in vitro biological assay. The values refer to the binding affinity (IC50; μM) of the example compounds according to formula I to the Oxytocin receptor.

[2] = target: T2, hOT-R (Homo sapiens, UniProt P30559); test: Functional assay No. 1: inhibition of Ca2+-mobilization by FLIPR; format: cell-based; conditions: HEK cells, OT 40 nM
T2 construct: expressed in transfected cells; host or cells: HEK (Human Embryonic Kidney) cells
T2 sequence (P30559 1-389): T1 sequence (P30559 1-389)
Text: b) Functional Assay No. 1: Inhibition of Ca^2+-mobilization by FLIPR (Fluorescent Imaging Plate Reader)
FLIPR is a machine for fluorescence imaging using a laser that is capable of illuminating a 96-well plate and a means of simultaneously reading each well thus enabling rapid measurements on a large number of samples.
This assay intends to show the inhibition of the OT/OT-R mediated calcium mobilisation—being necessary to cause uterine contractions—by using test compounds of formula (I).
Preparing the plates: FLIPR-plates were pre-coated with PLL (Poly-L-Lysine) 10 μg/ml+0.1% gelatine to attach the HEK (Human Embryonic Kidney) cells for 30 min up to 2 days at 37° C. The cells were plated out into 96-well plates (60000 cells/well).
Labelling with fluo-4: 50 μg fluo-4 (fluorescent marker) were dissolved in 20 μl pluronic acid (20% in DMSO). The dissolved fluo-4 was then diluted in 10 ml DMEM (Dubecco's Minimal Essential Medium-F12 medium without FCS (Fetal Calf Serum). The medium was removed from the plates, followed by one wash with DMEM-F12 medium. Now, 100 μl of the DMEM-F12 medium containing fluo-4 were added and the cells incubated for 1–1.5 h (CHO-cells), and 1.5–2 h (HEK-cells). The cells now contain the fluorescent marker.
Buffer: 145 mM NaCl, 5 mM KCl, 1 mM MgCl2, 10 mM Hepes, 10 mM Glucose, EGTA (Ethylene-bis oxyethylene nitrilo tetraacetic acid). Adjust to pH 7.4.
Performance of the assay: A minimum of 80 μl/well of antagonists (5×) in the above buffer (1×) were prepared (96-well plates). The antagonists were added to the well-plates at different concentrations (30 μM, 10 μM, 1 μM, 300 nM, 100 nM, 10 nM, 1 nM, 100 pM, 10 pM).
OT is added at a concentration of 40 nM.
The fluorescent market being sensitive to the amount of Ca^2+ mobilized within the cell may be quantified by the FLIPR machine.
The activities of the pyrrolidine derivatives according to formula I were assessed using the above described in vitro biological assay. The values refer to the capacity of the example compounds according to formula I to effectively antagonize oxytocin-induced intracellular Ca^2+-mobilization mediated by the Oxytocin receptor.

[3] = tested on: oxytocin-induced uterine contractions in the rat; test: In vivo model for inhibition of uterine contractions
[4] = tested on: oxytocin-induced uterine contractions in the rat; test: as above; remark: listed apart in the source
Description: d) In Vivo Model for Inhibition of Uterine Contractions
The assay intends to show the biological effect of tested compounds in an in vivo model of preterm labor, premature birth.
Non-pregnant Charles River CD(SD) BR female rats (9–10 weeks old, 200–250 g) were treated at 18 and 24 hours before the experiment with 250 μg/kg, i.p. diethylstilbestrol (DES). For the assay, the animal was anaesthetised by urethane (1.75 g/kg, i.p.) and placed on an homeothermic operating table. The trachea was isolated and cannulated with a suitable polyethylene (PE) tubing. A midline incision at the hypogastrium level was made and one uterine horn exposed, its cephalic end cannulated with a PE240 tubing and, after filling the internal cavity with 0.2 ml of sterile physiological saline, connected to a “Gemini” amplifying/recording system via a P231D Gould Statham pressure transducer, in, order to measure said pressure. For the i.v. route of administration of the test compounds, one jugular vein was isolated and cannulated with a PE60 tubing connected to a butterfly needle to allow the administration by a dispensing syringe. In the case of intraduodenal administration of the test compounds, the duodenum was isolated and similarly cannulated through a small incision in its wall. One carotid artery was also isolated and cannulated with PE60 catheter and connected to a suitable syringe for blood sample collection (see below). After a stabilization period, the same dose of oxytocin was repeatedly injected intravenously at 30-min intervals. […] Further injections of the same dose of oxytocin were then made for a suitable time after treatment to assess inhibitory effects of the compounds under study. The contractile response of the uterus to oxytocin was quantified by measuring the intrauterine pressure and the number of contractions.
A total of six animals is forming one group which is treated with a given test compound at a given concentration (see above).
The effect of the test compounds were evaluated by comparing pre- and post-treatment pressure values. In addition, at 2, 30, 90 and 210 minutes after test compound administration, a 0.5-ml blood sample was withdrawn from the cannulated carotid artery of each experimental animal. Plasma was obtained by standard laboratory procedure and the resulting samples were stored at −20° C.
The activities of the pyrrolidine derivatives claimed in the formula I were assessed using the above described in vivo biological assay. The values refer to the capacity of the example compound according to formula I to effectively antagonize oxytocin-induced uterine contractions in the rat.

Compound	IC50 [1] [nM]	IC50 [2] [nM]	other results
CCC(O)c1noc([C@@H]2CC(=NOC)CN2C(=O)c2ccc(-c3ccccc3)cc2)n1 (mixture of isomers) [(3EZ,5S)-1-([1,1′-biphenyl]-4-ylcarbonyl)-5-{3-[(1RS)-1-hydroxypropyl]-1,2,4-oxadiazol-5-yl}-3-pyrrolidinone O-methyloxime]	6		
CO/N=C1\C[C@@H](c2nc(C)no2)N(C(=O)c2ccc(-c3ccccc3C)cc2)C1 [(3E,5S)-1-[(2′-methyl[1,1′-biphenyl]-4-yl)carbonyl]-5-(3-methyl-1,2,4-oxadiazol-5-yl)-3-pyrrolidinone O-methyloxime]	23		
CON=C1C[C@@H](c2nnco2)N(C(=O)c2ccc(-c3ccccc3)cc2)C1 [(3EZ,5S)-1-([1,1′-biphenyl]-4-ylcarbonyl)-5-(1,3,4-oxadiazol-2-yl)-3-pyrrolidinone O-methyloxime]	211	220	
CON=C1C[C@@H](c2nc(C)no2)N(C(=O)c2ccc(-c3ccccc3)cc2)C1 [(3EZ,5S)-1-([1,1′-biphenyl]-4-ylcarbonyl)-5-(3-methyl-1,2,4-oxadiazol-5-yl)-3-pyrrolidinone O-methyloxime]	88	4	
CON=C1C[C@@H](c2nc(CCO)no2)N(C(=O)c2ccc(-c3ccccc3)cc2)C1 [(3EZ,5S)-1-([1,1′-biphenyl]-4-ylcarbonyl)-5-[3-(2-hydroxyethyl)-1,2,4-oxadiazol-5-yl]-3-pyrrolidinone O-methyloxime]	11		
CON=C1C[C@@H](c2nc(CC(=O)N3CCCC3)no2)N(C(=O)c2ccc(-c3ccccc3)cc2)C1 [(3EZ,5S)-1-([1,1′-biphenyl]-4-ylcarbonyl)-5-{3-[2-oxo-2-(1-pyrrolidinyl)ethyl]-1,2,4-oxadiazol-5-yl}-3-pyrrolidinone O-methyloxime]	7		
CON=C1C[C@@H](c2nc(C)no2)N(C(=O)c2ccc(-c3ccccc3Cl)cc2)C1 [(3EZ,5S)-1-[(2′-chloro[1,1′-biphenyl]-4-yl)carbonyl]-5-(3-methyl-1,2,4-oxadiazol-5-yl)-3-pyrrolidinone O-methyloxime]		1	
CON=C1C[C@@H](c2nc(C)no2)N(C(=O)c2ccc(-c3ccccc3C)cc2)C1 [(3EZ,5S)-1-[(2′-methyl[1,1′-biphenyl]-4-yl)carbonyl]-5-(3-methyl-1,2,4-oxadiazol-5-yl)-3-pyrrolidinone O-methyloxime]	21	12	
CON=C1C[C@@H](c2noc(C3CCN(C(C)=O)CC3)n2)N(C(=O)c2ccc(-c3ccccc3)cc2)C1 [(3EZ,5S)-5-[5-(1-acetyl-4-piperidinyl)-1,2,4-oxadiazol-3-yl]-1-([1,1′-biphenyl]-4-ylcarbonyl)-3-pyrrolidinone O-methyloxime]	2		
CO/N=C1/C[C@@H](c2noc(CN(C)C)n2)N(C(=O)c2ccc(-c3ccccc3)cc2)C1 [(3Z,5S)-1-([1,1′-biphenyl]-4-ylcarbonyl)-5-{5-[(dimethylamino)methyl]-1,2,4-oxadiazol-3-yl}-3-pyrrolidinone O-methyloxime]			% Reduction of Uterine Contraction ([3]; oral, NP3S, 1 mg/kg): −11.1 ± 1.3%; % Reduction of Uterine Contraction ([3]; oral, NP3S, 3 mg/kg): −42.1 ± 2.9%; % Reduction of Uterine Contraction ([4]; oral, NP3S, 10 mg/kg): −49.5 ± 6.1%; % Reduction of Uterine Contraction ([4]; oral, NP3S, 30 mg/kg): −74.4 ± 4.2%
CO/N=C1/C[C@@H](c2nc(C)no2)N(C(=O)c2ccc(-c3ccccc3C)cc2)C1 [(3Z,5S)-1-[(2′-methyl[1,1′-biphenyl]-4-yl)carbonyl]-5-(3-methyl-1,2,4-oxadiazol-5-yl)-3-pyrrolidinone O-methyloxime]	9	4	% Reduction of Uterine Contraction ([3]; Intravenous, NP3S 5 ml/kg infusion, 3 mg/kg): −58.0 ±5.9%; % Reduction of Uterine Contraction ([3]; Intravenous, NP3S, 7.5 ml/kg infusion, 30 mg/kg): −80.3 ± 5.1%; % Reduction of Uterine Contraction ([4]; Intravenous, NP3S 5 ml/kg infusion, 0.3 mg/kg): −21.5 ± 7.3%; % Reduction of Uterine Contraction ([4]; Intravenous, NP3S 5 ml/kg infusion, 1 mg/kg): −44.6 ± 7.1%; % Reduction of Uterine Contraction ([4]; Intravenous, NP3S 5 ml/kg infusion, 10 mg/kg): −67.2 ± 10.1%
CO/N=C1\C[C@@H](c2nc(CCO)no2)N(C(=O)c2ccc(-c3ccccc3)cc2)C1 [Example 9 (3E), (3E,5S)-1-([1,1′-biphenyl]-4-ylcarbonyl)-5-[3-(2-hydroxyethyl)-1,2,4-oxadiazol-5-yl]-3-pyrrolidinone O-methyloxime]			melting point: 140.5 °C
CON=C1C[C@@H](c2noc(CNC(C)=O)n2)N(C(=O)c2ccc(-c3ccccc3)cc2)C1 [N-({3-[(2S,4EZ)-1-([1,1′-biphenyl]-4-ylcarbonyl)-4-(methoxyimino)pyrrolidinyl]-1,2,4-oxadiazol-5-yl}methyl)acetamide]	3		

Reference: US7115639B2, “Pyrrolidine oxadiazole- and thiadiazole oxime derivatives being oxytocin receptor antagonists” (Applied Research Systems ARS Holding N.V., priority 2001, dated 2006)
